# In article PMC6956045 (Pharmaceutics, 2019):
# Key:
# [1] = Bulk phase partition coefficient n-octanol/phosphate buffer; assay type: physicochemical; details: pH 6.8, read-out: n-Octanol partition coefficient P (converted)
# Description: The partition coefficient was calculated as the ratio between octanol concentration and the aqueous concentration. Three replicates were done to determine the average value.
# Partition coefficients can be used as an index to provisionally classify compounds in terms of permeability.
# [2] = cited from earlier work
# [3] = cited from earlier work; remark: listed apart in the source
# Caco-2 cell monolayers = experiment: Permeability assay: Caco-2 transport studies; assay type: in vitro ADME
# Description: Caco-2 cells were grown in a polycarbonate membrane. To reach the confluence, 250,000 cells/cm^2 were seeded in six Transwell plates and […] for 19–22 days with Dubelcco’s Modified Eagle’s Media, with 1% L-glutamine, 10% fetal bovine serum, and 1% penicillin/streptomycin, at 37 °C temperature, 90% relative humidity, and 5% CO2.
# The confluence of the cells was tested by measuring the transepithelial electrical resistance (TEER). Permeability studies were conducted with an orbital shaking (50 rpm) and with pH 7.0 in both chambers. Standard protocols were described and validated previously in our laboratory. Four samples of 200 µL were taken and replaced with a fresh buffer from the receiver side at 15, 30, 45, and 90 min.
# Permeability studies were performed in both directions: apical-to-basal (A-to-B) and basal-to-apical (B-to-A).
# The apparent permeability coefficient was calculated according the following equation:(1) Creceiver,t=Qtotal/Vreceiver+Vdonor+((Creceiver,t−1·f)−Qtotal/Vreceiver+Vdonor)·e^−Peff 0,1·S·(1/Vreceiver+1/Vdonor)·Δt where Creceiver,t is the drug concentration in the receiver chamber at time t, Qtotal is the total amount of drug in both chambers, Vreceiver and Vdonor are the volumes of each chamber, Creceiver,t−1 is the drug concentration in the receiver chamber at the previous time, f is the sample replacement dilution factor, S is the surface area of the monolayer, Δt is the time interval, and Peff is the permeability coefficient as was described by Mangas-Sanjuan et al..
# Experiments in the presence of the formulation excipients were done by dissolving a formulation tablet in 250 mL of buffer and filtrating the obtained dispersion to eliminate nonsoluble excipients.
# [4] = Solubility assay: saturation shake-flask method; assay type: physicochemical; details: for solubility at 8 h: thermodynamic from solid, 37 °C, shake-flask
# Description: The solubility assays were performed according to the World Health Organization (WHO) guidelines protocols. […] A sample concentration was determined using high-performance liquid chromatography (HPLC) with ultraviolet (UV) detection.
logD [1],"Permeability compared with metoprolol (Caco-2 cell monolayers; Caco-2, pH 7.0 both chambers, drug in solution)","Permeability in the presence of sodium azide (Caco-2 cell monolayers; Caco-2, passive diffusion permeability, transporter contribution nullified)",Solubility classification [4],"solubility at 8 h ([4]; buffer solution pH 1.2, aqueous buffer, pH 1.2 buffer)","solubility at 8 h ([4]; buffer solution pH 4.5, aqueous buffer, pH 4.5 buffer)","solubility at 8 h ([4]; buffer solution pH 6.8, aqueous buffer, pH 6.8 buffer)",Volume in which the highest strength/dose (40 mg) would be soluble ([4]; pH 1.2),Structure (SMILES),Solubility in chloroform [2],"Solubility in water, methanol and acetonitrile [2]",First-pass hepatic effect (of the absorbed drug) [3],Intestinal absorption (of dose administered) [3],log P [2],pKa [2],"Concentration dependence of permeability (Caco-2 cell monolayers; Caco-2, 50-1000 μM)"
-0.638,–,–,–,–,–,–,–,COCCc1ccc(OCC(O)CNC(C)C)cc1 (stereo not shown) [Metoprolol],–,–,–,–,–,–,–
–,–,–,–,–,–,–,–,CC[C@H](C)C(=O)O[C@H]1C[C@H](O)C=C2C=C[C@H](C)[C@H](CC[C@@H](O)C[C@@H](O)CC(=O)O)[C@H]21 [Pravastatin sodium],practically insoluble,easily soluble,–,–,–,–,–
-0.155,lower than that of metoprolol,as high as metoprolol permeability,highly soluble,440 ± 17.4 mg/mL,504 ± 24.2 mg/mL,480 ± 17.4 mg/mL,0.09 mL,CC[C@H](C)C(=O)O[C@H]1C[C@H](O)C=C2C=C[C@H](C)[C@H](CC[C@@H](O)C[C@@H](O)CC(=O)O)[C@H]21 [Pravastatin],–,–,66%,34%,1.65,4.21,permeability increased at higher concentrations
